Legend:
Assay in all cases: relative viability (nuclei count vs DMSO), 5 days (fraction); higher = more cells survive
[1] = compound: COc1cc2c(Oc3ccc4[nH]c(C)cc4c3F)ncnc2cc1OCCCN1CCCC1 [Cediranib] + CC(=O)c1c(C)c2cnc(Nc3ccc(N4CCNCC4)cn3)nc2n(C2CCCC2)c1=O [Palbociclib] (partner 0.5 µM)
Method in brief: (§1)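 Five library-drug doses in √10 steps were combined with a fixed anchor-drug dose, or a single drug was given alone, by pin tool to lung cancer cell lines in 1536-well plates the day after seeding. Nuclei were stained and counted after 5 days. Relative viability is the nuclei count in treated wells over that in vehicle wells, taken as the median of duplicate plates.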

[2] = compound: Nc1ncn([C@H]2C[C@H](O)[C@@H](CO)O2)c(=O)n1 [Decitabine] + CS(=O)(=O)N1CCN(Cc2cc3nc(-c4cccc5[nH]ncc45)nc(N4CCOCC4)c3s2)CC1 [Pictilisib] (partner 1 µM)
Method in brief: as §1

[3] = compound: Nc1ncn([C@H]2C[C@H](O)[C@@H](CO)O2)c(=O)n1 [Decitabine] + C[C@@H](Oc1cc(-c2cnn(C3CCNCC3)c2)cnc1N)c1c(Cl)ccc(F)c1Cl [Crizotinib] (partner 1 µM)
Method in brief: as §1

[4] = compound: O=C(C[C@H]1NCCC[C@@H]1O)Cn1cnc2cc(Br)c(Cl)cc2c1=O (racemic) [Halofuginone] + CC(=O)c1c(C)c2cnc(Nc3ccc(N4CCNCC4)cn3)nc2n(C2CCCC2)c1=O [Palbociclib] (partner 0.5 µM)
Method in brief: as §1

| Cell Line | relative viability ([1]; first compound 0.04 µM) | relative viability ([1]; first compound 0.1265 µM) | relative viability ([1]; first compound 0.4 µM) | relative viability ([1]; first compound 1.265 µM) | relative viability ([1]; first compound 4 µM) | relative viability ([2]; first compound 0.04 µM) | relative viability ([2]; first compound 0.1265 µM) | relative viability ([2]; first compound 0.4 µM) | relative viability ([2]; first compound 1.265 µM) | relative viability ([2]; first compound 4 µM) | relative viability ([3]; first compound 0.04 µM) | relative viability ([3]; first compound 0.1265 µM) | relative viability ([3]; first compound 0.4 µM) | relative viability ([3]; first compound 1.265 µM) | relative viability ([3]; first compound 4 µM) | relative viability ([4]; first compound 0.001 µM) | relative viability ([4]; first compound 0.003162 µM) | relative viability ([4]; first compound 0.01 µM) | relative viability ([4]; first compound 0.03162 µM) | relative viability ([4]; first compound 0.1 µM) |
| --- | --- | --- | --- | --- | --- | --- | --- | --- | --- | --- | --- | --- | --- | --- | --- | --- | --- | --- | --- | --- |
| NCI-H1666 | 0.681 | 0.61 | 0.636 | 0.644 | 0.658 | 0.458 | 0.478 | 0.387 | 0.319 | 0.372 | 0.7 | 0.75 | 0.708 | 0.512 | 0.46 | 0.668 | 0.683 | 0.641 | 0.676 | 0.645 |
| NCI-H1734 | 0.322 | 0.348 | 0.383 | 0.356 | 0.305 | 0.442 | 0.453 | 0.443 | 0.342 | 0.312 | 0.515 | 0.603 | 0.593 | 0.396 | 0.304 | 0.338 | 0.361 | 0.33 | 0.32 | 0.2 |
| NCI-H1755 | 0.441 | 0.429 | 0.436 | 0.441 | 0.422 | 0.385 | 0.411 | 0.291 | 0.365 | 0.343 | 0.762 | 0.811 | 0.804 | 0.53 | 0.317 | 0.436 | 0.479 | 0.421 | 0.491 | 0.418 |
| NCI-H1792 | 0.599 | 0.607 | 0.584 | 0.739 | 0.682 | 0.303 | 0.243 | 0.34 | 0.235 | 0.197 | 0.97 | 1.01 | 0.948 | 0.501 | 0.553 | 0.613 | 0.704 | 0.666 | 0.662 | 0.585 |
| NCI-H1915 | 0.549 | 0.491 | 0.506 | 0.512 | 0.553 | 0.814 | 0.662 | 0.387 | 0.295 | 0.304 | 0.314 | 0.285 | 0.217 | 0.194 | 0.201 | 0.571 | 0.514 | 0.523 | 0.472 | 0.422 |
| NCI-H1944 | 0.331 | 0.386 | 0.315 | 0.346 | 0.313 | 0.353 | 0.424 | 0.369 | 0.319 | 0.299 | 0.787 | 0.859 | 0.627 | 0.45 | 0.387 | 0.286 | 0.362 | 0.313 | 0.357 | 0.293 |
| NCI-H1975 | 0.62 | 0.608 | 0.491 | 0.578 | 0.547 | 0.293 | 0.254 | 0.226 | 0.238 | 0.218 | 0.491 | 0.355 | 0.312 | 0.305 | 0.28 | 0.66 | 0.547 | 0.553 | 0.42 | 0.157 |
| NCI-H1993 | – | 0.634 | 0.64 | 0.656 | 0.637 | 0.866 | 0.973 | 0.788 | 0.9 | 0.725 | 0.898 | 0.776 | 0.832 | 0.702 | 0.728 | 0.626 | 0.519 | 0.637 | 0.617 | 0.454 |

Reference: the supplement of paper PMC10307832
